Assay: Stability of diaryliodonium salt precursors under heating and base conditions (HPLC of by-products I-mazenil and H-mazenil)
Assay type: physicochemical
Settings: for relative instability of precursor (stability of 8f set forth to be 1.00): 150° C., 15 min, K2.2.2./K2CO3 in dimethylformamide, without fluorine-18, ratio relative to 8f (FIG. 6)
Experimental: Contrary to the expectation that the diaryliodonium salt precursors (8b to 8e) could be labeled at higher yields than precursor 8a thanks to their higher electron densities, a lower labeling yield of fluorine18 was detected for them at high temperatures in the presence of a base. This might be accounted by the significance of the stability of the precursors. To verify this, the precursors were analyzed for stability in the […] to examine the reactivity of each precursor. In the following Reaction Scheme 2, the degradation of each diaryliodonium salt precursor in the presence of base under a heating condition is illustrated. As shown, two compounds I-mazenil (9) and H-mazenil (10) are formed, and their concentrations reflect the stability of the diaryliodonium salt precursor.
The diaryliodonium salt precursors whose aromatic rings are richer in electron density, compared to phenyl-mazenil-iodonium salt (8a), are more apt to be affected by the reaction conditions for aromatic fluorination with fluorine-18. […] To examine the selectivity and stability of the diaryliodonium salts, the production of the by-products I-mazenil (9) and H-mazenil(10) which are degraded from the precursors due to their instability in a condition free of fluorine-18 was analyzed using HPLC. […]
After each diaryliodonium salt precursor was thermally treated 150° C. for 15 min in the presence of kryptofix2.2.2./potassium carbonate (K2.2.2./K2CO3) in dimethylformamide, without fluorine-18, measurement was made of the concentrations of 1-mazenil (9) and H-mazenil (10) to evaluate the stability of each precursor (FIG. 6). In addition, the labeling reactivity of the diaryliodonium salt precursors into [19F]flumazenil was assessed by reacting them with cesium fluoride at 90° C. for 120 min in dimethylformamide (FIG. 7). […]

SMILES | relative instability of precursor (stability of 8f set forth to be 1.00) | stability among the diaryliodonium salt precursors (potassium carbonate and 150° C., similar results with TBAHCO3 and TBAOH (FIG. 6))
CCOC(=O)c1ncn2c1CN(C)C(=O)c1cc([I+]c3ccccc3)ccc1-2.Cc1ccc(S(=O)(=O)[O-])cc1 [Precursor 8a, ethyl 8-phenyl(iodonium tosylate)-5,6-dihydro-5-methyl-6-oxo-4H-imidazo[1,5-a][1,4]benzodiazepine-3-carboxylate] | 1.11 | 
CCOC(=O)c1ncn2c1CN(C)C(=O)c1cc([I+]c3ccc(C)cc3)ccc1-2.Cc1ccc(S(=O)(=O)[O-])cc1 [Precursor 8f, ethyl 8-(4-methylphenyl)(iodonium tosylate)-5,6-dihydro-5-methyl-6-oxo-4H-imidazo[1,5-a][1,4]benzodiazepine-3-carboxylate] | 1.00 | the most stable
